Laboratory results reported in US20110165232A1, “Use of Opioid Antagonists for the Preparation of a Medicament in the Treatment of Retinal Degenerative Diseases” (AK KIMYA ITHALAT-IHRACAT VE SANAYII ANONIM SIRKETI, priority 2008, published 2011).

How the values were obtained:
beta-endorphins = settings: normal volunteers, LDN at bedtime, in the following days; cited from earlier work
[1] = tested on: age related macular degeneration; test: Case reports: low dose naltrexone regimen in patients with age related macular degeneration; type: in vivo, human; settings: elderly person with age related macular degeneration, 4.5 mg per day at bedtime
Excerpt: An […] has had age related macular degeneration for the last 11 years of […] life, experiencing progressive blurring in the center of […] vision. The degeneration led to loss of central vision […] from many daily activities. It […] very difficult to lead an independent life.
An […] has had age related macular degeneration for the last 10 years […]. […] experienced a loss of central vision […] to differentiate the colors of the surrounding objects and letters in the newspapers. […] […] began to differentiate the colors of the objects shown to […]; […] started to differentiate the big printed letters in the newspapers.

human tumors = settings: laboratory studies, low dose naltrexone methodology; cited from earlier work
Met-enkephalin = settings: animal research, Ref 7; cited from earlier work

O=C1CC[C@@]2(O)[C@H]3Cc4ccc(O)c5c4[C@@]2(CCN3CC2CC2)[C@H]1O5 [naltrexone]
levels of beta-endorphins in blood (beta-endorphins): higher levels of beta-endorphins in their blood | quality of vision [1]: the quality of their vision started to improve | time after initiation of therapy until vision began to improve [1]: Approximately 50 days | quality of vision ([1]; listed as low dose naltrexone): improvement in the quality of their vision | time after initiation of therapy until vision began to improve ([1]; listed as low dose naltrexone): 50 to 60 days | inhibition of human tumors (human tumors): inhibition of different human tumors | Met-enkephalin levels (Met-enkephalin): marked increase in Met-enkephalin levels
